This is an account of results in patent publication US20210255184A1, “Biosensor Device and Methods” (The New Zealand Institute for Plant and Food Research …, priority 2018, published 2021).

A short description of the test: GFET sensor, empty liposomes (control). Format: biochemical. The procedure: The OR liposomes were functionalised onto the graphene surface via a non-covalent route using PBASE as the molecular linker as shown in FIG. 13. The OR liposomes were diluted at 1:10 ratio with 1×PBS (pH7.4). The cleaned GFETs were immersed in 1 mM PBASE solution in methanol for 1 hour. The devices were washed three times in methanol and subsequently washed three times in 1×PBS to remove the excess PBASE and residual methanol in the channel respectively. The OR liposomes were diluted 1:10 with 1×PBS (pH 7.4) and 100 μL of the OR dilution was placed in the graphene channel and incubated at room temperature for one hour in a closed petri dish. After OR liposome functionalization, the devices were washed in 1×PBS for 10 s before measurements.
The OR liposome immobilised GFET device with a PDMS well mounted on it was placed onto the probe station and the source and drain connections were made by micromanipulators. 100 μl of PBS containing 1% dimethyl sulfoxide (DMSO) was added to the well and the Ag/AgCl standard electrode was placed into the buffer. The stock solution of ligands at 100 mM concentrations were prepared by dissolving them in DMSO as they are not stable in aqueous buffer. The stock solution was stored at 4° C. The ligand solution for sensing was prepared by diluting the stock solution in 1×PBS buffer containing 1% DMSO to set concentrations from 10 fM to 100 pM. […]

As to `CCCCCC(=O)OC` [methyl hexanoate], the “sensor response to target ligand” value is reported as “lack of response”.
With `COC(=O)c1ccccc1O` [methyl salicylate], the “sensor response to target ligand” value is “lack of response”.
